Experimental data: patent US7521432B2, “Compositions and methods for identifying agents which regulate chromosomal stability, gene activation and aging” (priority 2000, dated 2009)

Biological target: HST2 (Saccharomyces cerevisiae, UniProt P53686)
Assay: Rapid-reaction single turnover quench-flow analysis
Format: biochemical, yeast
Conditions: HST2, excess NAD^+, sub-stoichiometric [^3H]-AcLys14 H3, 22±3° C., pH 7.5, single exponential fit
From the text: FIGS. 5A-5C are a series of graphs showing that acetate is not a primary product of HST2-catalyzed histone/protein deacetylation. H3 peptide was stoichiometrically acetylated on Lys-14 by the histone acetyltransferase P/CAF and using [^3H]-AcCoA. Monoacetylated [^3H]-AcLys-14 H3 peptide was then purified by HPLC (FIG. 5A) and utilized as a substrate in the HST2 deacetylation reactions (FIG. 5B). Upon complete consumption of [^3H]-AcLys-14 H3 by HST2, all of the original [^3H] from H3 peptide was converted to a labeled product that eluted much later than authentic acetate. Conditions: 375 nM HST2, 175 μM NAD^+, 5 μM [^3H]-Lys14 AcH3, 1 mM DTT, for 1 min at 37° C. prior to quenching with TFA to a final concentration of 1%. FIG. 5C: Single turnover rapid quench-flow analysis. […] Quantification of [^3H]-AcLys14 H3 peptide (diamonds) and the [^3H]-acetate-adduct (circles) was accomplished by liquid scintillation counting of these species separated using reverse phase HPLC. […]
P/CAF [^3H]-monoacetylation of H3 peptide. […] Every mass spectrum was recorded as the sum of 20 consecutive spectra, each produced by a single pulse of photons. […] The amount of [^3H]-AcLys14 H3 peptide and [^3H]-O-acetyl ADP ribose was determined by liquid scintillation counting of these species separated on reverse phase HPLC. […]

HST2, sequence (P53686 whole entry): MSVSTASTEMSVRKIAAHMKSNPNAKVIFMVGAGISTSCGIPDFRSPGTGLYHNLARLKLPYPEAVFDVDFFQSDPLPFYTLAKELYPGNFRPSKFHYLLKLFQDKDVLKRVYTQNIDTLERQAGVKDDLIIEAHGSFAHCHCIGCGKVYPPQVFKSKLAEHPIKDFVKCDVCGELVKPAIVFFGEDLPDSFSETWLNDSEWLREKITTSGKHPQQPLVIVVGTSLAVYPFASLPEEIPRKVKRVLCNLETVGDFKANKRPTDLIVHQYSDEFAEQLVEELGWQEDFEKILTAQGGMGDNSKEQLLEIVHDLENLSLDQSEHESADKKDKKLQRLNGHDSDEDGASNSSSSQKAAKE

## O-acetyl-ADP ribose
  rate constant of acetate-adduct formation: 2.3 ± 0.2 s⁻¹
